# Measurements published in PubChem BioAssay (NCI).
#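 These data come from cells grown in 96-well plates and exposed to compound for 48 hours at five concentrations. TGI is the concentration that stops growth completely.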
# How the values were obtained:
# Test in all cases: NCI anticancer screen, dose series, 48 h
# [1] = system: M14 melanoma
# [2] = system: LOX IMVI melanoma
# [3] = system: MDA-N
# [4] = system: OVCAR-8 ovarian
# [5] = system: DU-145 prostate
# [6] = system: MDA-MB-231 breast
# [7] = system: MALME-3M melanoma
# [8] = system: UACC-257 melanoma
# [9] = system: IGROV1 ovarian
# [10] = system: HT29 colon
# [11] = system: UO-31 renal
# [12] = system: EKVX NSCLC
# [13] = system: RPMI-8226 leukemia
# [14] = system: HCT-116 colon
# [15] = system: OVCAR-4 ovarian
# [16] = system: NCI/ADR-RES ovarian
# [17] = system: HL-60(TB) leukemia
# [18] = system: SR leukemia
# [19] = system: HCC-2998 colon
# [20] = system: SK-MEL-2 melanoma
smiles,measurement,setting,value
CCCCCCCCCC(=O)NC(CCC(=O)N(CCNC(=O)c1nc(-c2ccccc2)oc1-c1ccccc1)Cc1ccccc1)C(=O)O (centres undefined),TGI,[1],28.3 µM
same,TGI,[2],35.9 µM
same,TGI,[3],36.4 µM
same,TGI,[4],35.5 µM
same,TGI,[5],43.7 µM
same,TGI,[6],40.6 µM
same,TGI,[7],34.8 µM
same,TGI,[8],54.7 µM
same,TGI,[9],39.8 µM
same,TGI,[10],32.3 µM
same,TGI,[11],28.5 µM
same,TGI,[12],35.1 µM
same,TGI,[13],79 µM
same,TGI,[14],32.5 µM
same,TGI,[15],75.2 µM
same,TGI,[16],33.3 µM
COc1ccc(C2Oc3c(cccc3-c3c(-c4ccc(O)cc4)oc4cc(O)cc(O)c4c3=O)C(=O)C2O)cc1O (centres undefined),TGI,[1],> 100 µM
same,TGI,[17],> 100 µM
same,TGI,[4],> 100 µM
same,TGI,[5],> 100 µM
same,TGI,[18],> 100 µM
same,TGI,[6],> 100 µM
same,TGI,[7],> 100 µM
same,TGI,[19],> 100 µM
same,TGI,[8],> 100 µM
same,TGI,[9],> 100 µM
same,TGI,[10],> 100 µM
same,TGI,[11],> 100 µM
same,TGI,[12],> 100 µM
same,TGI,[13],> 100 µM
same,TGI,[14],> 100 µM
same,TGI,[15],> 100 µM
same,TGI,[16],> 100 µM
COc1cc2c(c(OC)c1OC)C(=O)[C@@H](O)[C@H]2NC(N)=O,TGI,[1],> 100 µM
same,TGI,[2],> 100 µM
same,TGI,[17],> 100 µM
same,TGI,[3],> 100 µM
same,TGI,[4],> 100 µM
same,TGI,[5],> 100 µM
same,TGI,[6],> 100 µM
same,TGI,[7],> 100 µM
same,TGI,[19],> 100 µM
same,TGI,[8],> 100 µM
same,TGI,[9],> 100 µM
same,TGI,[10],> 100 µM
same,TGI,[11],> 100 µM
same,TGI,[12],> 100 µM
same,TGI,[13],> 100 µM
same,TGI,[14],> 100 µM
same,TGI,[16],> 100 µM
COc1ccc(/C=N/N=C(\N)NO)cc1F,TGI,[1],33.3 µM
same,TGI,[2],48.7 µM
same,TGI,[17],> 100 µM
same,TGI,[4],> 100 µM
same,TGI,[18],86.5 µM
same,TGI,[20],> 100 µM
same,TGI,[7],> 100 µM
same,TGI,[19],> 100 µM
same,TGI,[8],> 100 µM
same,TGI,[9],> 100 µM
same,TGI,[10],38.3 µM
same,TGI,[11],39.6 µM
same,TGI,[12],> 100 µM
same,TGI,[13],> 100 µM
same,TGI,[14],> 100 µM
same,TGI,[15],> 100 µM
COC1(OC)N=C(N)C2(C#N)C(C)=C3NCN(C)N=C3C12C#N (centres undefined),TGI,[1],> 100 µM
same,TGI,[2],> 100 µM
same,TGI,[3],> 100 µM
same,TGI,[4],> 100 µM
same,TGI,[5],> 100 µM
same,TGI,[6],> 100 µM
same,TGI,[20],> 100 µM
same,TGI,[7],> 100 µM
same,TGI,[19],> 100 µM
same,TGI,[8],> 100 µM
same,TGI,[9],> 100 µM
same,TGI,[10],> 100 µM
same,TGI,[11],> 100 µM
same,TGI,[12],> 100 µM
same,TGI,[13],> 100 µM
same,TGI,[14],> 100 µM
same,TGI,[16],> 100 µM
Clc1ccc(C(Cc2ccccc2)c2c(Cl)nc(N3CCNCC3)nc2Cl)cc1 (centres undefined),TGI,[1],29.7 µM
same,TGI,[2],10.6 µM
same,TGI,[17],10.7 µM
same,TGI,[4],27.3 µM
same,TGI,[5],27.6 µM
same,TGI,[18],3.71 µM
same,TGI,[6],26.9 µM
same,TGI,[20],33.2 µM
same,TGI,[7],28.4 µM
same,TGI,[19],26 µM
same,TGI,[8],34 µM
same,TGI,[9],24.2 µM
same,TGI,[10],6.27 µM
same,TGI,[11],27.2 µM
same,TGI,[12],32.2 µM
same,TGI,[13],33.7 µM
same,TGI,[14],20.5 µM
same,TGI,[15],43 µM
same,TGI,[16],35 µM
C=CCc1oc(C)nc1CCCC,TGI,[1],> 100 µM
same,TGI,[2],> 100 µM
same,TGI,[17],> 100 µM
same,TGI,[3],> 100 µM
same,TGI,[4],> 100 µM
same,TGI,[5],> 100 µM
same,TGI,[6],> 100 µM
same,TGI,[7],> 100 µM
same,TGI,[19],> 100 µM
same,TGI,[8],> 100 µM
same,TGI,[9],> 100 µM
same,TGI,[10],> 100 µM
same,TGI,[11],> 100 µM
same,TGI,[12],> 100 µM
same,TGI,[14],> 100 µM
same,TGI,[15],> 100 µM
same,TGI,[16],> 100 µM
CCCCCCc1cc2cc(-c3cn4c(n3)sc3ccccc34)c(=O)oc2cc1O,TGI,[1],> 100 µM
same,TGI,[2],> 100 µM
same,TGI,[17],> 100 µM
same,TGI,[4],> 100 µM
same,TGI,[5],> 100 µM
same,TGI,[18],> 100 µM
same,TGI,[6],> 100 µM
same,TGI,[20],> 100 µM
same,TGI,[19],> 100 µM
same,TGI,[8],> 100 µM
same,TGI,[9],> 100 µM
same,TGI,[10],> 100 µM
same,TGI,[11],> 100 µM
same,TGI,[12],> 100 µM
same,TGI,[13],> 100 µM
same,TGI,[14],> 100 µM
same,TGI,[15],> 100 µM
same,TGI,[16],> 100 µM
COc1ccc(C[C@@H](C(=O)O[C@H](C)[C@H](NC(=O)[C@@H](CC(C)C)N(C)C(=O)C2CCCN2C(=O)[C@H](C)O)C(=O)N2CCCCNC(=O)[C@@H](C)C(=O)[C@H](C(C)C)OC(=O)C[C@H](O)[C@H]2CC(C)C)N(C)C(C)=O)cc1 (some centres undefined),TGI,[1],> 50 µM
same,TGI,[17],25.2 µM
same,TGI,[4],> 50 µM
same,TGI,[5],> 50 µM
same,TGI,[18],25 µM
same,TGI,[6],34.2 µM
same,TGI,[20],> 50 µM
same,TGI,[7],49.1 µM
same,TGI,[19],23 µM
same,TGI,[8],> 50 µM
same,TGI,[9],> 50 µM
same,TGI,[10],25.4 µM
same,TGI,[11],> 50 µM
same,TGI,[12],37.1 µM
same,TGI,[13],26.8 µM
same,TGI,[14],> 50 µM
same,TGI,[15],> 50 µM
same,TGI,[16],> 50 µM
CNn1c(-c2ccc(C)cc2)n[nH]c1=O,TGI,[1],> 100 µM
same,TGI,[2],> 100 µM
same,TGI,[4],> 100 µM
same,TGI,[18],> 100 µM
same,TGI,[6],> 100 µM
same,TGI,[20],> 100 µM
same,TGI,[7],> 100 µM
same,TGI,[19],> 100 µM
same,TGI,[8],> 100 µM
same,TGI,[9],> 100 µM
same,TGI,[10],> 100 µM
same,TGI,[11],> 100 µM
same,TGI,[12],> 100 µM
same,TGI,[13],> 100 µM
same,TGI,[14],> 100 µM
same,TGI,[15],> 100 µM
same,TGI,[16],> 100 µM
O=C1C[C@@H]2[C@@H](c3ccccc3)[C@@H]3C(=O)c4ccccc4NC(=O)[C@H]3[C@]2(O)c2ccccc2N1,TGI,[1],> 100 µM
same,TGI,[2],> 100 µM
same,TGI,[17],> 100 µM
same,TGI,[4],> 100 µM
same,TGI,[18],> 100 µM
same,TGI,[20],> 100 µM
same,TGI,[7],> 100 µM
same,TGI,[9],> 100 µM
same,TGI,[10],> 100 µM
same,TGI,[11],> 100 µM
same,TGI,[12],> 100 µM
same,TGI,[13],> 100 µM
same,TGI,[14],> 100 µM
same,TGI,[15],> 100 µM
CCOC(=O)C1=C(O)C(=O)c2ccoc2C1=O,TGI,[1],> 100 µM
same,TGI,[2],> 100 µM
same,TGI,[17],> 100 µM
same,TGI,[4],> 100 µM
same,TGI,[18],> 100 µM
same,TGI,[20],> 100 µM
same,TGI,[7],> 100 µM
same,TGI,[19],> 100 µM
same,TGI,[8],> 100 µM
same,TGI,[9],> 100 µM
same,TGI,[10],> 100 µM
same,TGI,[11],> 100 µM
same,TGI,[12],> 100 µM
same,TGI,[13],> 100 µM
same,TGI,[14],> 100 µM
same,TGI,[15],> 100 µM
CC(Cc1ccccc1)N(C)Cc1nc(C2CCC([N+](=O)[O-])O2)no1 (centres undefined),TGI,[1],19.1 µM
same,TGI,[2],11.6 µM
same,TGI,[4],59.1 µM
same,TGI,[5],24.9 µM
same,TGI,[18],> 100 µM
same,TGI,[6],9.93 µM
same,TGI,[7],25.6 µM
same,TGI,[19],14.3 µM
same,TGI,[8],21.2 µM
same,TGI,[9],25.5 µM
same,TGI,[10],11.5 µM
same,TGI,[11],20.4 µM
same,TGI,[12],94.4 µM
same,TGI,[13],72.8 µM
same,TGI,[14],25.3 µM
same,TGI,[15],21.3 µM
same,TGI,[16],82.5 µM
